From patent publication US6429215B1, “N-oxide of heterocyclic ester, amide, thioester, or ketone hair growth compositions and uses” (GPI NIL Holdings, Inc., priority 1998, dated 2002)

Target: FKBP12 (Homo sapiens, UniProt P62942)
Assay: Inhibition of peptidyl-prolyl isomerase (rotamase) activity, apparent Ki
Assay type: biochemical
Conditions: chymotrypsin-coupled assay, N-succinyl-Ala-Ala-Pro-Phe-p-nitroanilide, pH 7.8
Source text: The inhibition of the prolyl peptidyl cis-trans isomerase activity of FKBP may be measured as an indicator of this affinity.
Inhibition of the peptidyl-prolyl isomerase (rotamase) activity of the compounds used in the inventive methods and pharmaceutical compositions can be evaluated by known methods described in the literature (Harding et al., Nature, 1989, 341:758-760; Holt et al. J. Am. Chem. Soc., 115:9923-9938). These values are obtained as apparent Ki's and are presented for representative compounds in TABLE II.
The cis-trans isomerization of an alanine-proline bond in a model substrate, N-succinyl-Ala-Ala-Pro-Phe-p-nitroanilide, is monitored spectrophotometrically in a chymotrypsin-coupled assay, which releases paranitroanilide from the trans form of the substrate. The inhibition of this reaction caused by the addition of different concentrations of inhibitor is determined, and the data is analyzed as a change in first-order rate constant as a function of inhibitor concentration to yield the apparent Ki values. […]
The absorbance at 390 nm versus time is monitored for 90 seconds using a spectrophotometer and the rate constants are determined from the absorbance versus time data files.

FKBP12, sequence (P62942 whole entry, species assumed): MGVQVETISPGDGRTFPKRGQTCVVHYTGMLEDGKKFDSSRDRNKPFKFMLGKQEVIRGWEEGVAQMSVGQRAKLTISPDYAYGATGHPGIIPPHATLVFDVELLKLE

3-(3-Pyridyl)-1-propyl (2S)-1-(3,3-Dimethyl-1,2-dioxopentyl)-2-pyrrolidinecarboxylate, N-oxide [Compound 1]
Ki: 225 nM
